Activity calls are given as the source filed them. The rule behind the calls is not given here.
Tests used:
[1] = target: Heat shock protein HSP90 (Homo sapiens) (UniProt P07900+P08238); experiment: Competitive inhibition of recombinant HSP90 (unknown origin) at 100 uM measured after 3 hrs using FITC-labeled geldanamycin by fluorescence polarization assay
[2] = Anticancer activity against human SNU638 cells measured after 72 hrs by SRB assay; assay type: functional, cell-based; details: SNU-638, 72 h
[3] = Anticancer activity against human HCT116 cells measured after 72 hrs by SRB assay; assay type: functional, cell-based; details: HCT-116, 72 h
[4] = Anticancer activity against human Caki1 cells measured after 72 hrs by SRB assay; assay type: functional, cell-based; details: CAKI-1, 72 h
MDA-MB-231 = experiment: Anticancer activity against human MDA-MB-231 cells measured after 72 hrs by SRB assay; assay type: functional, cell-based; details: MDA-MB-231, 72 h
A549 = experiment: Anticancer activity against human A549 cells measured after 72 hrs by SRB assay; assay type: functional, cell-based; details: A549, 72 h

SMILES	inhibition [1]	also measured
Nc1ncnc2c1nc(NCc1ccc3c(c1)OCO3)n2[C@@H]1SC[C@@H](O)[C@H]1O	inactive	IC50 [2]: > 100000 nM; IC50 [3]: > 100000 nM; IC50 [4]: > 100000 nM; IC50 (MDA-MB-231): > 100000 nM; IC50 (A549): > 100000 nM
Nc1ncnc2c1nc(N1CCCCC1)n2[C@@H]1SC[C@@H](O)[C@H]1O	inactive	
O[C@@H]1[C@H](O)CS[C@H]1n1c(-c2cccs2)nc2c(Cl)ncnc21	inactive	
CNc1ncnc2c1nc(-c1cccs1)n2[C@@H]1SC[C@@H](O)[C@H]1O	inactive	
COC1=C2C[C@@H](C)C[C@H](OC)[C@H](O)[C@@H](C)/C=C(\C)[C@H](OC(N)=O)[C@@H](OC)/C=C\C=C(/C)C(=O)NC(=CC1=O)C2=O [GELDANAMYCIN]		IC50 [2]: 30 nM; IC50 [3]: 150 nM; IC50 [4]: 56 nM; IC50 (MDA-MB-231): 110 nM; IC50 (A549): 109 nM
Nc1ncnc2c1nc(-c1cccs1)n2[C@@H]1SC[C@@H](O)[C@H]1O	inactive	
Nc1ncnc2c1nc(I)n2[C@@H]1SC[C@@H](O)[C@H]1O	11%	
[N-]=[N+]=Nc1nc2c(N)ncnc2n1[C@@H]1SC[C@@H](O)[C@H]1O	inactive	
CNc1ncnc2c1nc(-c1ccco1)n2[C@@H]1SC[C@@H](O)[C@H]1O	inactive	
Nc1ncnc2c1nc(NCc1ccccc1)n2[C@@H]1SC[C@@H](O)[C@H]1O	inactive	
[N-]=[N+]=Nc1nc2c(Cl)ncnc2n1[C@@H]1SC[C@@H](O)[C@H]1O	inactive	
O[C@@H]1[C@H](O)CS[C@H]1n1c(-c2ccco2)nc2c(Cl)ncnc21	inactive	
Nc1ncnc2c1nc(-c1ccco1)n2[C@@H]1SC[C@@H](O)[C@H]1O	inactive	

Continued, in another order:

inhibition [1]	SMILES	also measured
inactive	CNc1nc2c(N)ncnc2n1[C@@H]1S[C@H](CO)[C@@H](O)[C@H]1O	
inactive	Nc1ncnc2c1nc(-c1ccccc1)n2[C@@H]1S[C@H](CO)[C@@H](O)[C@H]1O	
inactive	Nc1ncnc2c1nc(-c1ccco1)n2[C@@H]1S[C@H](CO)[C@@H](O)[C@H]1O	
inactive	Nc1ncnc2c1nc(-c1cccs1)n2[C@@H]1S[C@H](CO)[C@@H](O)[C@H]1O	
inactive	CNc1nc2c(N)ncnc2n1[C@@H]1SC[C@@H](O)[C@H]1O	
inactive	CCCNc1nc2c(N)ncnc2n1[C@@H]1S[C@H](CO)[C@@H](O)[C@H]1O	
inactive	CCCNc1nc2c(N)ncnc2n1[C@@H]1SC[C@@H](O)[C@H]1O	
inactive	Nc1ncnc2c1nc(N1CCCCC1)n2[C@@H]1S[C@H](CO)[C@@H](O)[C@H]1O	
inactive	[N-]=[N+]=Nc1nc2c(N)ncnc2n1[C@@H]1S[C@H](CO)[C@@H](O)[C@H]1O	

Source: ChEMBL document CHEMBL3813697, “Design, synthesis, and anticancer activity of C8-substituted-4'-thionucleosides as potential HSP90 inhibitors” (Bioorg Med Chem, 2016)
